Assay: Yellowing study by UV-Vis percentage transmission after UV exposure
Format: physicochemical
Details: 1 wt. % in dichloromethane; percentage transmission across visible range; cured at 0, 100, 500, 1000 and 3000 mJ; FIG. 2
From the text: UV-Vis spectroscopy was used to measure the compound yellowing by measuring the percentage transmission for each of the compounds across the visible range. This was done by dissolving 1 wt. % of each compound in a solvent, usually dichloromethane, and measuring the solutions percentage transmission on the Hitachi UV-Vis spectrometer, with air as a baseline. The solutions were then cured at a variety of different doses (0, 100, 500, 1000 and 3000 mJ) and the transmission measured again.
Anhydrous dichloromethane was used to dissolve the mixtures, as it remains unaffected when exposed to UV light. By comparing these percentage transmissions it could be concluded, which compound yellow and to what extent.

| SMILES | change in yellowing when exposed to UV-light |
| --- | --- |
| C=CC(=O)OCCCCCCOc1ccc(C(=O)Oc2ccc(C#Cc3ccc(OC)cc3)cc2F)cc1 [RM-1] | least amount of change in yellowing |
| C=CC(=O)OCCCCCCOc1ccc(C(=O)Oc2ccc(C#Cc3ccc(OC)cc3)cc2C)cc1 [B] | significant increase in yellowing |
| C=CC(=O)OCCCCCCOc1ccc(C(=O)Oc2ccc(C#Cc3ccc(OC)cc3)cc2Cl)cc1 [A] | least amount of change in yellowing |

Reference: patent US20180148648A1, “REACTIVE MESOGENS” (Merck Patent GmbH, priority 2015, published 2018)
